How the values were obtained:
[1] = system: HDM driven allergic airway inflammation; test: House dust mite (HDM) allergic airway inflammation model, treatment strategy 1 (allergy induction); format: in vivo, C57bl/6 mice
Description: To induce airway inflammation, mice were anaesthetized with isofluorane and treated intratracheally (i.t.) with 1-10 μg house dust mite (HDM; Greer Laboratories) allergen extract in 80 μL phosphate buffered saline (PBS) on day 0 or using PBS only. Ten days later, anesthetized mice were challenged with 1-10 μg HDM in 50 μL PBS intranasally (i.n.) for 5 consecutive days. Mice were sacrificed 24 hr after last challenge and broncho alveolar lavage was performed by flushing the lungs 3 times with 1 ml PBS containing Ethylenediaminetetraacetic acid (EDTA, Sigma-Aldrich).
Different treatment modalities were testes i.e. route and dose. Here we tested the oral versus intratracheal route (FIG. 1) and PBS versus enoximone in a HDM driven allergy model. Enoximone was precipitated from Perfan®. The precipitant was admitted with HDM solution and used as a suspension for intratracheal treatment doses 25 μg and 250 μg or it was used as a suspension admitted in PBS for oral treatment doses 250 μg or 2.5 mg. Mice underwent enoximone treatment only during challenge. Sensitization was performed with 1 μg HDM and challenge with 2.5-5 μg HDM. Twenty-four hours after the last challenge measurements were performed.
Optimal dose of 25 μg enoximone versus diluent (FIG. 5) was admitted with 5 μg HDM solution and used for intratracheal treatment or diluent (10% ethanol+40% glycerol+50% MQ) admitted with 5 μg HDM solution. Controls were treated with enoximone 25 μg admitted with PBS or diluent admitted with PBS. Mice underwent enoximone treatment only during challenge.
(A) Experimental HDM asthma design showing intratracheal sensitization (s) of 1 μg HDM or PBS as control and five intra-nasal challenges (c) with 2.5-5 μg HDM. (B) Quantification of flow cytometric analyses of the indicated populations of eosinophils in bronchoalveolar lavage (BAL) of PBS treated mice (black bars) and enoximone treated mice (white and greyscale bars). Results are expressed as means±SEM. (C) Quantification of flow cytometric analyses of ILC2 numbers in BAL. Results are expressed as means±SEM. Results represent data of one out of 2 experiments with 3-8 animals per group. Statistical evaluations were performed only between different treatments of groups. *p<0.05, **p<0.01).
(A) Experimental HDM asthma design showing intratracheal sensitization (s) of 1 μg HDM or PBS as control and intra nasal challenge (c) with 5 μg HDM. (B) Quantification of flow cytometric analyses of eosinophils in BAL of PBS treated mice (black bars) and enoximone treated mice (light grey bars). Results are expressed as means±SEM. (C) Quantification of flow cytometric analyses of neutrophils and (D) ILC2s in BAL. Results are expressed as means±SEM. n=4-8 animals per group. Statistical evaluations were performed only between different treatments of groups (*p<0.05 or **p<0.01).

[2] = system: HDM driven allergic airway inflammation; test: as above; format: in vivo, C57bl/6 mice; conditions: orally (2.5 and 0.25 μg), treatment during challenge, FIG. 5B
patients with asthma = test: Trials 1-3: treatment of asthma patients with enoximone; format: in vivo, human
Description: A patient was to be operated in connection with a mammary carcinoma. They had known difficult-to-treat asthma and before the operation they received 30 mg prednisone per day as extra medication in addition to their beta-2 agonists and parasympatholytics treatment, but their breathing remained considerably obstructed. Ten minutes before the start of the anaesthesia they were given 25 mg enoximone intravenously. […] Ultimately, after a single administration of enoximone, they stayed symptom-free for two months. Based on the above experience, a second patient was treated. According to their lung specialist, they suffered from untreatable asthma and had been completely bed-ridden for a long time, among other reasons due to high doses of the traditional medication (next to some other drugs they received 50 mg prednisone per day). Inhalation therapy worked for a few minutes only due to the severe bronchoconstriction, the drying of the airways and the consequential sticky obstructive mucus. The patient received 20 mg enoximone orally in two doses of 10 mg at a 15 minutes interval. […] They remained symptom-free for 7 days. During the first day after the first administration, the patient coughed a lot, which loosened the sticky mucus. After 7 days, they received another 10 mg dose of enoximone orally, after which they again remained symptom-free for 7 days. They were ultimately able to drastically reduce their prednisone use to 5 mg per day (complete phasing out was not possible in connection with their Mixed Connected Tissue Disease). They were able to build up their condition relatively quickly with a maintenance dose of 10 mg of enoximone once every 4 days. After 3 months, they were able to perform their normal household activities again and go back to work. After another month, they were even able to do some sport with caution. Following trials 1 and 2, several patients with light to severe asthma symptoms, who up to that time had been treated exclusively with the traditional therapy with little or no results, were also treated with enoximone. […] Their individual dosage depended on the severity of the disorder. The dosage ranged from 0.1 to 0.3 mg/kg body weight, mostly in a maintenance dosage of twice a week, based on the time of recurrence of the symptoms.

[3] = oral or intratracheal enoximone

CSc1ccc(C(=O)c2[nH]c(=O)[nH]c2C)cc1 [enoximone, 1,3-dihydro-4-methyl-5-[4-(methylthio)benzoyl]-2H-imidazol-2-on]
neutrophil numbers in BAL ([1]; 25 μg enoximone intratracheally, FIG. 6C, same pattern as eosinophils): the same dynamic is observed | ILC2 cell numbers in BAL ([1]; 25 μg enoximone intratracheally, FIG. 6D, same pattern as eosinophils): the same dynamic is observed | numbers of BAL eosinophils, HDM/diluent treated mice compared to enoximone treated mice ([1]; 25 μg enoximone solution admitted to 5 μg HDM, intratracheally, FIG. 6B): significantly higher | allergic airway inflammation in control mice ([1]; PBS/enoximone (25 μg) control mice, no HDM): no signs of allergic airway inflammation | eosinophilic airway inflammation in control mice ([1]; PBS/enoximone control mice, no HDM): no eosinophilic airway inflammation | eosinophil numbers in BAL, HDM/PBS treated mice compared to enoximone treated mice ([1]; intratracheally (25 and 250 μg), treatment during challenge, FIG. 5B): significantly higher | DCs, PBS treated allergy mice compared to enoximone treated mice [1, 3]: significantly higher in the PBS treated allergy mice | Neutrophils, PBS treated allergy mice compared to enoximone treated mice [1, 3]: significantly higher in the PBS treated allergy mice | T-cells, PBS treated allergy mice compared to enoximone treated mice [1, 3]: significantly higher in the PBS treated allergy mice | ILC2 numbers in BAL ([1]; oral or intratracheal enoximone, FIG. 5C): reduced | eosinophil numbers in BAL, HDM/PBS treated mice compared to enoximone treated mice [2]: significantly higher | symptom-free period (patients with asthma; Trial 1: after a single administration of 25 mg intravenously): two months | time to disappearance of asthma symptoms (patients with asthma; Trial 1: person, difficult-to-treat asthma, 25 mg intravenously): within a few minutes | symptom-free period (patients with asthma; Trial 2: after 20 mg orally in two doses of 10 mg at a 15 minutes interval): 7 days | symptom-free period (patients with asthma; Trial 2: after another 10 mg dose orally after 7 days): 7 days | time until able to perform normal household activities and go back to work (patients with asthma; Trial 2: maintenance dose of 10 mg once every 4 days): 3 months | prednisone use after reduction (patients with asthma; Trial 2: previously 50 mg prednisone per day): 5 mg per day | time to disappearance of asthma symptoms (patients with asthma; Trial 2: untreatable asthma, after first oral dose of 10 mg): within two minutes | progress of patients with light to severe asthma symptoms (patients with asthma; Trial 3: 0.1 to 0.3 mg/kg body weight, mostly twice a week): remarkable and fast progress | allergic and immune-related symptoms (patients with asthma; Trial 3: five patients): substantially milder or even disappeared altogether | time to improved breathing (patients with asthma; administered orally in cases of asthma): within ten minutes | time to reaction (patients with asthma; all the patients treated): within a few minutes | symptom-free period (patients with asthma; all the patients treated, after only one dose): remained days or weeks symptom-free | duration of improvement of the dyspnoea symptoms (patients with asthma; as maintenance medication): from a few days to several weeks or several months | duration of the effects of the compound (patients with asthma; compared with the half life of 4 hours): lasting well beyond a month | side effects (patients with asthma; disappeared after one day, lowering the dose offered a solution): two patients reported headaches on the day of intake | time to improved breathing (patients with asthma; intravenous administration in cases of asthma): within as little as one minute

Source: patent publication US10071077B2, “Use of enoximone in the treatment of atopic immune-related disorders, in pharmaceutical composition as well as in pharmaceutical preparation” (BREAKTHROUGH MEDICAL RESEARCH B.V., priority 2014, dated 2018)
